In the oligonucleotide strings, read from the 5' end, every base follows the letter of its sugar. An asterisk marks phosphorothioate; unmarked linkages are phosphodiester. Other units and linkages are bracketed, terminal groups are in braces. A string of capitals states the bases alone. d = 2'-deoxy (DNA); m = 2'-O-methyl
Biological target: cGAS (Homo sapiens, UniProt Q8N884)
Experiment: ISD70-driven IP-10 (and IFN-β) production in THP-1 cells, ELISA
Type: cell-based
Parameters: endogenous in cells; host or cells: THP-1 (undifferentiated)
Conditions: for cGAS-100 nM: averaged IP-10 levels relative to ISD70: 100 nM ASO overnight, then ISD70 2.5 μg/ml 7-8 h, percentage of ISD70 only; for cGAS 100 nM (averaged IP-10 level relative to ISD70 condition): ASO 100 nM, relative to ISD70 only, given as fraction

Chain of cGAS (Q8N884 whole entry): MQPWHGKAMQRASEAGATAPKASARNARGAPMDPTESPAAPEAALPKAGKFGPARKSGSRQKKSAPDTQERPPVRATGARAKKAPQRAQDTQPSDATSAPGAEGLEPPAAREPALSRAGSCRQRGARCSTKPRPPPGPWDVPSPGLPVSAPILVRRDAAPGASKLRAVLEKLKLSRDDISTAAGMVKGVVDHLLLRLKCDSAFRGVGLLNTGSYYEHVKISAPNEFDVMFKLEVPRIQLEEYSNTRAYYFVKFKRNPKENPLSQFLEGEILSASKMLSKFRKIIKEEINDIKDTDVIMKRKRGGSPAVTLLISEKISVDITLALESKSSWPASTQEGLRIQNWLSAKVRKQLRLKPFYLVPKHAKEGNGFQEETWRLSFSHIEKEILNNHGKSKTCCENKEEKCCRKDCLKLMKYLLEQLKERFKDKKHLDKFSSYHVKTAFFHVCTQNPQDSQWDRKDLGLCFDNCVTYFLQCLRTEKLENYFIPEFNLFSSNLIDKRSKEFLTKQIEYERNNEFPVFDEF

Substance	cGAS 100 nM (averaged IP-10 level relative to ISD70 condition)	other results
mA*mG*mC*mA*mG*T*C*T*C*C*A*T*G*T*C*mC*mC*mA*mG*mG (AGCAGTCTCCATGTCCCAGG; antisense; sugars from the 5' end m5 d10 m5, all phosphorothioate, methylation of C not given here) [[CDKN2B-AS1]2235]		cGAS-100 nM: averaged IP-10 levels relative to ISD70 (THP-1): 28.75%
GGTCTTGGCTTCGTGG (antisense; LNA-modified, pattern not given here) [MB21D1-523 LNA V1]	0.648	
TACTTTCCGAGGTGTC (antisense; LNA-modified, pattern not given here) [CAMSAP1-1739 LNA KL]	0.638	
GCACTTCAGTCTGAGC (antisense; LNA-modified, pattern not given here) [MB21D1-719 LNA KL]	0.797	
AGGTCTTGGCTTCGTG (antisense; LNA-modified, pattern not given here) [MB21D1-524 LNA V1]	0.947	
ACTTCGTGGGGTCCTT (antisense; LNA-modified, pattern not given here) [HPRT LNA-663 V1]	0.937	
AACACTTCGTGGGGTC (antisense; LNA-modified, pattern not given here) [HPRT LNA-666 V1]	0.598	
TGGTCCACAACCCCTT (antisense; LNA-modified, pattern not given here) [MB21D1-697 LNA V1]	0.935	
mG*mU*mG*mU*mU*T*T*T*A*A*T*T*T*T*G*mU*mA*mG*mA*mG (mG*mU*mG*mU*mU*dT*dT*dT*dA*dA*dT*dT*dT*dT*dG*mU*mA*mG*mA*mG) [[CDKN2B-AS1]611]		cGAS-100 nM: averaged IP-10 levels relative to ISD70 (THP-1): 66.24%
TCCTTGCACGTGGCTT (antisense; LNA-modified, pattern not given here) [EGFR-1014 LNA V1]	0.591	
mG*mU*mC*mU*mC*C*A*T*G*T*C*C*C*A*G*mG*mC*mC*mU*mC (mG*mU*mC*mU*mC*dC*dA*dT*dG*dT*dC*dC*dC*dA*dG*mG*mC*mC*mU*mC) [[CDKN2B;AS1]2231]		cGAS-100 nM: averaged IP-10 levels relative to ISD70 (THP-1): 84.16%
GACTATACGCGCAATA (antisense; LNA-modified, pattern not given here) [NC5 LNA PS 3-10-3]	0.991	
AGCTTCGAGGCCCCAG (antisense; LNA-modified, pattern not given here) [MB21D1-616 LNA V1]	0.648	
AAAGGACTGAGGAAAG (antisense; LNA-modified, pattern not given here) [CAMSAP1-6273 LNA KL]	0.675	
ACACTTCGTGGGGTCCTTTT (antisense; 2'-MOE modified, pattern not given here) [HPRT-663 MOE]		cGAS 100 nM (MOE-modified ASO at 100 nM, averaged IP-10 levels relative to ISD70 condition): 0.623
AACCCCTTTCACCATC (antisense; LNA-modified, pattern not given here) [MB21D1-689 LNA KL]	0.621	
TGGTGGCCACCCATCT (antisense; LNA-modified, pattern not given here) [CTNN2B-2479 LNA V1]	0.830	
mA*mA*mA*mG*mC*A*G*T*C*T*C*C*A*T*G*mU*mC*mC*mC*mA (mA*mA*mA*mG*mC*dA*dG*dT*dC*dT*dC*dC*dA*dT*dG*mU*mC*mC*mC*mA; antisense) [[CDKN2B-AS1]2237]		cGAS-100 nM: averaged IP-10 levels relative to ISD70 (THP-1): 70.95%
TGTCTGGAAGCTTCCT (antisense; LNA-modified, pattern not given here) [CTNN2B-808 LNA V1]	0.617	
GGCTCGGCTTGCCTAC (antisense; LNA-modified, pattern not given here) [CAMSAP1-5594 LNA V1]	0.761	
AGGCCCTTCGCACTTC (antisense; LNA-modified, pattern not given here) [EGFR-1225 LNA V1]	0.629	
mA*mA*mG*mC*mA*G*T*C*T*C*C*A*T*G*T*mC*mC*mC*mA*mG (mA*mA*mG*mC*mA*dG*dT*dC*dT*dC*dC*dA*dT*dG*dT*mC*mC*mC*mA*mG; antisense) [[CDKN2B-AS1]2236]		cGAS-100 nM: averaged IP-10 levels relative to ISD70 (THP-1): 107.34%
mA*mG*mU*mG*mG*C*A*C*A*T*A*C*C*A*C*mA*mC*mC*mC*mU (AGUGGCACATACCACACCCU; antisense; sugars from the 5' end m5 d10 m5, all phosphorothioate, methylation of C not given here) [[CDKN2B-AS1]495]		cGAS-100 nM: averaged IP-10 levels relative to ISD70 (THP-1): 59.69%
CCACTTGGCAGACCAT (antisense; LNA-modified, pattern not given here) [CTNN2B-1575 LNA V1]	0.532	

Substance	cGAS 100 nM (averaged IP-10 level relative to ISD70 condition)	other results
CTTGGCTTCGTGGAGC (antisense; LNA-modified, pattern not given here) [MB21D1-520 LNA V1]	0.666	
AGTGTTGAGATACTCG (antisense; LNA-modified, pattern not given here) [EGFR-3652 LNA KL]	0.692	
CACTTCGTGGGGTCCT (antisense; LNA-modified, pattern not given here) [HPRT LNA-664 V1]	0.562	
CTTCGTGGGGTCCTTT (antisense; LNA-modified, pattern not given here) [HPRT LNA-662 V1]	0.556	
CCAGCAGGTCAGCAAA (antisense; LNA-modified, pattern not given here) [HPRT LNA-388 KL]	0.552	
mA*mG*mU*mC*mU*C*C*A*T*G*T*C*C*C*A*mG*mG*mC*mC*mU (mA*mG*mU*mC*mU*dC*dC*dA*dT*dG*dT*dC*dC*dC*dA*mG*mG*mC*mC*mU; antisense) [[CDKN2B-AS1]2232]		cGAS-100 nM: averaged IP-10 levels relative to ISD70 (THP-1): 88.13%
TGACTGTCTTGAGGGT (antisense; LNA-modified, pattern not given here) [MB21D1-1483 LNA KL]	0.747	
GTCTTCATCGGCCCTG (antisense; LNA-modified, pattern not given here) [CAMSAP1-2113 LNA V1]	0.809	
GAAAGGTTATGCAAGG (antisense; LNA-modified, pattern not given here) [CTNN2B-916 LNA KL]	0.473	
ATCTGGCAGCCCATCA (antisense; LNA-modified, pattern not given here) [CTNN2B-2516 LNA V1]	0.502	
CCTTGCACGTGGCTTC (antisense; LNA-modified, pattern not given here) [EGFR-1013 LNA V1]	0.559	
TGTCCTTGCACGTGGC (antisense; LNA-modified, pattern not given here) [EGFR-1016 LNA V1]	0.678	
GCACACTTCGTACCCA (antisense; LNA-modified, pattern not given here) [CAMSAP1-4915 LNA V1]	0.383	
mU*mA*mU*mU*mU*C*C*A*C*A*T*G*C*C*C*mA*mG*mU*mG*mU (mU*mA*mU*mU*mU*dC*dC*dA*dC*dA*dT*dG*dC*dC*dC*mA*mG*mU*mG*mU; antisense) [[CDKN2B-AS1]627]		cGAS-100 nM: averaged IP-10 levels relative to ISD70 (THP-1): 80.99%
TCTTCATCGGCCCTGC (antisense; LNA-modified, pattern not given here) [CAMSAP1-2112 LNA V1]	0.548	
mG*mU*mG*mU*mC*C*T*T*C*A*T*G*C*T*T*mU*mG*mG*mA*mU (GUGUCCTTCATGCTTUGGAU; antisense; sugars from the 5' end m5 d10 m5, all phosphorothioate, methylation of C not given here) [[CDKN2B-AS1]1415]		cGAS-100 nM: averaged IP-10 levels relative to ISD70 (THP-1): 58.18%
TTCAGGCGCTGCCTTG (antisense; LNA-modified, pattern not given here) [CAMSAP1-2709 LNA V1]	0.709	
AGGACTCCAGATGTTT (antisense; LNA-modified, pattern not given here) [HPRT LNA pos cont]	0.632	
CGTATTATAGCCGATT (antisense; LNA-modified, pattern not given here) [NC1 LNA PS 3-10-3]	0.443	
GTCAAGGGCATATCCT (antisense; LNA-modified, pattern not given here) [HPRT LNA-732 KL]	0.636	
mC*mU*mU*mG*mU*G*A*A*A*A*G*A*T*T*A*mU*mC*mU*mU*mC (mC*mU*mU*mG*mU*dG*dA*dA*dA*dA*dG*dA*dT*dT*dA*mU*mC*mU*mU*mC) [[CDKN2B-AS1]2139]		cGAS-100 nM: averaged IP-10 levels relative to ISD70 (THP-1): 33.75%
CGGCCTCGGAAGCTCT (antisense; LNA-modified, pattern not given here) [MB21D1-168 LNA V1]	0.617	
TGACAAAGATTCACTG (antisense; LNA-modified, pattern not given here) [HPRT LNA-1353 KL]	0.887	
CTTGAAGCATCGTATC (antisense; LNA-modified, pattern not given here) [CTNN2B-3648 LNA KL]	0.373	inhibition of cGAS in THP-1, LNA and MOE ASO validation (in words) (THP-1, 300 nM LNA or 200 nM MOE ASO ~30 min, ISD70 overnight (FIG. 21, 23)): failed to significantly inhibit cGAS
